Key:
[1] = test system: Detroit 562 cells; assay: Colony formation assay, Detroit 562; type: cell-based
Description: (§1) Crystal violet assays were used to assess relative cell growth and survival after treatment with specific compounds. In general, cells were plated in triplicate in 12-well plates for 24 hours before drug treatments were added using 10% FBS media. The plates were incubated for 14 days, with the media and drug being replaced every 48 hours. The cells were then washed with phosphate-buffered saline and fixed in ice-cold methanol before being stained with 0.5% crystal violet (Sigma-Aldrich) in 25% methanol. Images were taken using a ChemiDoc MP Imaging System (Bio Rad), and for quantification, the crystal violet stain was dissolved in 33% acetic acid, incubated for 20 minutes with shaking, and read at 595 nm using iMark™ Microplate Absorbance Reader (Bio-Rad). Graphs display percent colony formation relative to the DMSO-treated control sample.

[2] = test system: BEAS-2B cells; assay: Colony formation assay, BEAS-2B; type: cell-based, human
Description: as §1

[3] = test system: BICR56 cells; assay: MTS cell viability assay, BICR56; type: cell-based
Description: A Cell Titer 96 AQueous One Solution Cell Proliferation Assay (Promega) was used for MTS assays following the manufacturer's protocol. […] MTS was added, cells were incubated for two hours, and absorbance was measured at 490 nm using iMark™ Microplate Absorbance Reader (Bio-Rad). Graphs display percent cell viability relative to the DMSO-treated control sample. EC50 values were determined using GraphPad Prism 8.

[4] = test system: c-MYC; assay: c-MYC abundance in CAL33 cells (immunoblot); type: cell-based
Description: (§2) Generally, cells were plated in six-well or 35-mm plates for 24 hours, after which doxycycline was added or treatment with specific inhibitor was administered using […] for 48 hours. After appropriate treatment time, cells were washed with ice-cold phosphate-buffered saline without Ca and Mg (Quality Biological) and then lysed on ice with RIPA buffer (50 mM NaCl, 1.0% o IGEPAL® CA-630, 0.5% o sodium deoxycholate, 0.10% SDS, 50 mM Tris, pH 8.0) (Sigma-Aldrich) supplemented with protease inhibitor tablet (Sigma-Aldrich) and phosphatase inhibitor cocktails 2 and 3 (Sigma-Aldrich) followed by centrifugation at 15,000 rpm for 10 minutes at 4° C. Protein concentrations were determined from the cell lysate by using 660 nm Protein Assay Reagent (Pierce). Cell extracts were denatured, subjected to SDS-PAGE, transferred to PVDF membranes (Bio-Rad) and blocked for 2 hours using 5 bovine serum albumin (BSA) in phosphate-buffered saline and 0.10 Tween® 20 (PBS-T). The membranes were incubated with the specific antibodies overnight in […] at 4° C. followed by a 1 hour incubation with the appropriate horseradish peroxidase-conjugated secondary antibodies and signal was detected by chemiluminescence (Thermo Fisher).

[5] = test system: GOF mutant p53 (R175H); assay: GOF mutant p53 abundance in CAL33 cells (immunoblot); type: cell-based
Description: as §2

[6] = test system: CDK2 activity in SCC-15 HNSCC cells; assay: Live-cell imaging of CDK2 activity and cell cycle in SCC-15 cells; type: cell-based; details: for CDK2 activity over the cell cycle: compared to control
Description: Cells were plated in 96-well plates with full growth media more than 24 hours prior to imaging, such that the density would remain sub-confluent until the end of the imaging period. Time-lapse imaging was performed in 290 μL full growth media. Images were taken in CFP and YFP channels every 12 minutes on a Nikon Ti2-E inverted microscope (Nikon) with a 20X 0.45NA objective. Total light exposure time was kept under 600 milliseconds for each time point. Cells were imaged in a humidified, 37° C. chamber at 5% CO2.
All image analyses were performed with custom MATLAB scripts as previously described (Cappell et al., Cell 2016, 166:167-180). In brief, optical illumination bias was empirically derived by sampling background areas across all wells in an imaging session, and was subsequently used to flatten all images. This enabled measurement and subtraction of a global background for each image. Cells were segmented for their nuclei based on H2B-mTurquoise. CDK2 activity was calculated by measuring the nuclear and cytoplasmic fluorescence of the DHB-mVenus protein. Cells were segmented for their cytoplasmic regions by spatially approximating a ring with an inner radius of 2 μm outside of the nuclear mask and an outer radius with a maximum of 10 μm outside of the nuclear mask. Regions within 10 μm of another nucleus were excluded. Cytoplasmic DHB-mVenus was calculated as the median intensity within the cytoplasmic ring, excluding pixel intensities indistinguishable from background.
Mitosis events were automatically identified using H2B-mTurquoise and called at anaphase when one cell split into two daughter cells, each with approximately 45-55% of the size of the mother cell. Cells were considered to have been arrested in the G2 phase if a second mitosis was not detected for more than 30 hours after the first mitosis. Following drug treatment, cells were categorized by their CDK2 activity two hours after anaphase. Cells with high CDK2 activity (defined as greater than 0.6) are considered to have immediately re-entered the cell cycle, cells with transiently low CDK2 activity (defined as less than 0.6 two hours after anaphase but rising to greater than 0.6 within the viewing time) are considered to have entered into a transient G0 state before eventually re-entering the cell cycle, and cells with low CDK2 activity (defined as less than 0.6 within the viewing time) are considered to have entered a prolonged G0 state (Arora et al., Cell Rep 2017, 19:1351-1364).

[7] = test system: cyclins and cyclin-dependent kinases; assay: Abundance of CDKs and cyclins in CAL33 cells; type: cell-based; details: CAL33, 48 hours
Description: as §2

[8] = test system: MSK921 cells; assay: Colony formation assay, MSK921; type: cell-based; details: 200 nM, 14 days; cells lacking amplified MAP3K13
Description: as §1

[9] = various concentrations, 24 and 48 hours

Compound	colony formation ([1]; LZK inhibitor 2, concentration not stated)	colony formation ([1]; 2.5 μM)	clonogenic growth ([2]; 1 μM for 14 days, control cells)	short-term cell viability [3]	concentration with observed hook effect on c-MYC and GOF-p53 decreases ([4]; 24 hours and 48 hours) [µM]	c-MYC abundance [4, 9]	GOF mutant p53 (R175H) abundance [5, 9]	cell-cycle arrest [6]	fraction of cells entering a quiescent state [6]	CDK2 activity over the cell cycle [6]	expression of cyclins and cyclin-dependent kinases [7]	colony formation ([2]; 200 nM, 14 days, cells lacking amplified MAP3K13)	colony formation [8]	IC50 ([3]; 72 hours, read-out: IC50, viability in short-term MTS assay) [nM]	c-MYC levels over time ([4]; 500 nM, up to 72 hours)	rescue of loss of c-MYC by LZK^Q240S expression ([4]; CAL33 cells)	GOF-p53 expression levels ([5]; catalytic inhibitor treatment)
CC(=O)N1CCC(c2cc(Nc3cc(C#N)ccn3)nc(N3CCC(F)(F)C3)c2)CC1 [LZK inhibitor 2]	suppressed colony formation																
Cc1ncsc1-c1ccc([C@H](C)NC(=O)[C@@H]2C[C@@H](O)CN2C(=O)[C@@H](NC(=O)CCCCCCC(=O)N2CCC(c3cc(Nc4cc(C#N)ccn4)nc(N4CCC(F)(F)C4)c3)CC2)C(C)(C)C)cc1 [Compound 3]		almost complete loss of colony formation	little effect on control cells	reduced	10	loss of both GOF mutant p53 (R175H) and c-MYC abundance	loss of both GOF mutant p53 (R175H) and c-MYC abundance	caused a G2-phase cell-cycle arrest	increased fraction of cells entering a quiescent state	slower increase in CDK2 activity over the cell cycle	decreased expression of cyclins and cyclin-dependent kinases						
N#Cc1ccnc(Nc2cc(C3CCN(C4COC4)CC3)cc(N3CCC(F)(F)C3)n2)c1 [GNE-3511]								caused a G2-phase cell-cycle arrest	increased fraction of cells entering a quiescent state	slower increase in CDK2 activity over the cell cycle		only a minor reduction in colony formation	only a minor reduction in colony formation	410 ± 59.6	reduction in c-MYC levels that was subsequently maintained for 72 hours	rescued loss in c-MYC levels	did not alter GOF-p53 expression levels

Source: patent publication US20240190838A1, “LZK-TARGETING DEGRADERS AND METHODS OF USE” (The U.S.A., as represented by the Secretary, Department of …, priority 2020, published 2024)
